Experimental data from ChEMBL document CHEMBL6103545, “Discovery of GS-2278, a Potent and Selective LPAR1 Antagonist for the Treatment of Idiopathic Pulmonary Fibrosis” (J Med Chem, 2025).
pEC50, pIC50, pKi: −log10 of the molar value.

Experiments:
[1] = Plasma protein binding in cynomolgus monkey assessed as unbound fraction at 2 uM incubated for 24 hrs by LC-MS analysis; type: ADME, cell-free, Macaca fascicularis
[2] = biological target: T1, Lysophosphatidic acid receptor 1 (Homo sapiens, UniProt Q92633); assay: Antagonist activity at LPA1 receptor in serum starved human TWNT-4 cells assessed as nuclear translocation pre-incubated for 1 hr followed by LPA stimulation and measured after 30 min by MRTF-A assay; type: cell-based
[3] = Plasma protein binding in human assessed as unbound fraction incubated for 24 hrs by equilibrium dialysis based Rapidfire-QToF mass spectrometric analysis; type: ADME, cell-free
[4] = Metabolic stability in Beagle dog liver microsomes assessed as intrinsic clearance at 1 uM by LC/MS/MS analysis; type: ADME, Canis lupus familiaris, Microsome; settings: read-out: CLH (converted)
[5] = Volume of distribution in male Sprague-Dawley rat at 1 mg/kg, iv s measured after 24 hrs by LC/MS/MS analysis; type: ADME, organism-based; settings: in vivo
[6] = Volume of distribution in Beagle dog at 1 mg/kg, iv measured after 24 hrs by LC/MS/MS analysis; type: ADME, organism-based, Canis lupus familiaris; settings: in vivo
[7] = Volume of distribution in cynomolgus monkey at 1 mg/kg, iv measured after 24 hrs by LC/MS/MS analysis; type: ADME, organism-based, Macaca fascicularis; settings: in vivo
[8] = AUC (0 to 24 hrs) in Beagle dog at 5 mg/kg, po measured after 24 hrs by LC/MS/MS analysis; type: ADME, organism-based, Canis lupus familiaris; settings: in vivo
[9] = Half-life in cynomolgus monkey at 5 mg/kg, po measured after 24 hrs by LC/MS/MS analysis; type: ADME, organism-based, Macaca fascicularis; settings: in vivo
[10] = Oral bioavailability in cynomolgus monkey at 5 mg/kg measured after 24 hrs by LC/MS/MS analysis; type: ADME, organism-based, Macaca fascicularis; settings: in vivo
[11] = Drug metabolism in female CD-1 mouse assessed as (R)-1-(2,5-Difluoropyridin-3-yl)ethyl (4-(5-Acetamidopyridin-2-yl)-1-methyl-1H-1,2,3-triazol-5-yl)carbamate metabolite formation at 1 uM by LC/MS/MS analysis; type: ADME
[12] = biological target: T1, Lysophosphatidic acid receptor 1; assay: Displacement of [3H]LPA from human LPA1 receptor overexpressed in CHO cell membrane assessed as inhibition constant incubated for 90 min by competitive radioligand binding assay; type: cell membranes
[13] = biological target: T1, Lysophosphatidic acid receptor 1; assay: Antagonist activity at human LPA1 receptor expressed in HEK293 cells assessed as Galpha12 effector recruitment incubated for 10 mins by BRET assay; type: functional, cell-based
[14] = biological target: T1, Lysophosphatidic acid receptor 1; assay: Antagonist activity at human LPA1 receptor expressed in HEK293 cells assessed as Galpha13 effector recruitment incubated for 10 mins by BRET assay; type: functional, cell-based
[15] = biological target: T1, Lysophosphatidic acid receptor 1; assay: Antagonist activity at human LPA1 receptor expressed in HEK293 cells assessed as Galpha15 effector recruitment incubated for 10 mins by BRET assay; type: functional, cell-based
[16] = Apparent permeability from apical to basolateral side in human Caco-2 cells at 10 uM; type: ADME, cell-based
[17] = Apparent permeability from basolateral to apical side in human Caco-2 cells at 10 uM; type: ADME, cell-based
[18] = Plasma protein binding in human assessed as unbound fraction at 2 uM incubated for 24 hrs by LC-MS analysis; type: ADME, cell-free
[19] = Plasma protein binding in Beagle dog assessed as unbound fraction at 2 uM incubated for 24 hrs by LC-MS analysis; type: ADME, cell-free, Canis lupus familiaris
[20] = Mutagenicity in Salmonella typhimurium TA98 by Ames assay; type: toxicity; settings: salmonella enterica subsp. enterica serovar typhimurium
Bile salt export pump = Bile salt export pump (Homo sapiens, UniProt O95342); assay: Inhibition of BSEP in human hepatocyte by LC-MS analysis; type: cell-based
[21] = biological target: T2, Solute carrier organic anion transporter family member 1B1 (Homo sapiens, UniProt Q9Y6L6); assay: Inhibition of OATPB1P1 in human hepatocyte by LC-MS analysis; type: cell-based
T2 sequence (Q9Y6L6 whole entry): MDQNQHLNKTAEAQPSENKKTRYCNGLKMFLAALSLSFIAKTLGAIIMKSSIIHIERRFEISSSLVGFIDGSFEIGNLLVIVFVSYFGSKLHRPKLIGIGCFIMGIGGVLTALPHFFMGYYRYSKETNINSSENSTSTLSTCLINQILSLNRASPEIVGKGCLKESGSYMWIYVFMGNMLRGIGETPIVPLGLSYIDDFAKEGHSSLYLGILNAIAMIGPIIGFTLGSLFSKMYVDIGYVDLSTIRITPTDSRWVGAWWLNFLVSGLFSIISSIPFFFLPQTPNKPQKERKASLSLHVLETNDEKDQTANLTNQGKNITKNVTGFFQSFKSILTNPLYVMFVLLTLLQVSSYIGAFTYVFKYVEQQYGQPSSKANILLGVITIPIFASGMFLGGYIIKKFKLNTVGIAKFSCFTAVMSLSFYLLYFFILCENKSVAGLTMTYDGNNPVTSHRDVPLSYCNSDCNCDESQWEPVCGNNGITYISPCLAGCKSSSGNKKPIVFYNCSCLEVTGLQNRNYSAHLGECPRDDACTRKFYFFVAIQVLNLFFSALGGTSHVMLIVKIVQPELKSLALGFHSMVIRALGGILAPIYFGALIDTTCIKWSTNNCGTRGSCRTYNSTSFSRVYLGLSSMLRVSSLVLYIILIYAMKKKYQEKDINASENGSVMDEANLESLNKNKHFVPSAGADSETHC

Cytochrome P450 1A2 = biological target: T3, Cytochrome P450 1A2 (Homo sapiens, UniProt P05177); assay: Inhibition of CYP1A2 (unknown origin) using midazolam as substrate; type: ADME
T3 sequence (P05177 whole entry): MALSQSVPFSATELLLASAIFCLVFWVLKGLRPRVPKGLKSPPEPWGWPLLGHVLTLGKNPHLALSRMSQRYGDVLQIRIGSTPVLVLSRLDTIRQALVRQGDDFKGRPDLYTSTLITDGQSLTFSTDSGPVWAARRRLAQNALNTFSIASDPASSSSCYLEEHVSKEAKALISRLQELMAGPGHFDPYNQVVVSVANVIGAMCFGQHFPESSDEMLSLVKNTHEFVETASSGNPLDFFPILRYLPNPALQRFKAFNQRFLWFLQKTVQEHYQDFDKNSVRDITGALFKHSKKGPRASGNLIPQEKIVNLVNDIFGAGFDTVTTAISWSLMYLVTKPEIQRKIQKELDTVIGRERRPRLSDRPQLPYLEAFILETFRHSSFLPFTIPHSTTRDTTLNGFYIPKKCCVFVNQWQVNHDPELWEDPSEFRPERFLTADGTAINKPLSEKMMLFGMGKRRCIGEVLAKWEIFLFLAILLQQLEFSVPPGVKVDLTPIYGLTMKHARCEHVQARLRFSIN

Cytochrome P450 2C9 = Cytochrome P450 2C9 (Homo sapiens, UniProt P11712); assay: Inhibition of CYP2C9 (unknown origin) using midazolam as substrate; type: ADME
Cytochrome P450 2C19 = Cytochrome P450 2C19 (Homo sapiens, UniProt P33261); assay: Inhibition of CYP2C19 (unknown origin) using midazolam as substrate; type: ADME
[22] = Toxicity in Beagle dog CNS at 60 mg/kg/day, po measured after 7 days by radiotelemetry; type: organism-based, Canis lupus familiaris; settings: in vivo, 168 h, time 7 day
[23] = Toxicity in Beagle dog CNS at 10 mg/kg/day, po measured after 28 days by radiotelemetry; type: organism-based, Canis lupus familiaris; settings: in vivo, 672 h, time 28 day
[24] = Toxicity in Beagle dog CNS at 20 mg/kg/day, po measured after 28 days by radiotelemetry; type: organism-based, Canis lupus familiaris; settings: in vivo, 672 h, time 28 day

T1 sequence (Q92633 whole entry): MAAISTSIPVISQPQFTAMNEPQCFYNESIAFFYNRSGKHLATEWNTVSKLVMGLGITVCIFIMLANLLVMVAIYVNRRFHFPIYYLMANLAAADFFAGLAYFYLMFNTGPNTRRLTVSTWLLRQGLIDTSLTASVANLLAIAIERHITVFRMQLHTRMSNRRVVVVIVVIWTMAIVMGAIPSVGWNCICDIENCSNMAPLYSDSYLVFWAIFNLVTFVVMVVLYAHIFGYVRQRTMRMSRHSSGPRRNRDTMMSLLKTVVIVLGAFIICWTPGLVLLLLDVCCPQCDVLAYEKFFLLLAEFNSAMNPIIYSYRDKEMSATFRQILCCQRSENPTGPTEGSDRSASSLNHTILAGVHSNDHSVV
Chain of Cytochrome P450 2C19 (P33261 whole entry): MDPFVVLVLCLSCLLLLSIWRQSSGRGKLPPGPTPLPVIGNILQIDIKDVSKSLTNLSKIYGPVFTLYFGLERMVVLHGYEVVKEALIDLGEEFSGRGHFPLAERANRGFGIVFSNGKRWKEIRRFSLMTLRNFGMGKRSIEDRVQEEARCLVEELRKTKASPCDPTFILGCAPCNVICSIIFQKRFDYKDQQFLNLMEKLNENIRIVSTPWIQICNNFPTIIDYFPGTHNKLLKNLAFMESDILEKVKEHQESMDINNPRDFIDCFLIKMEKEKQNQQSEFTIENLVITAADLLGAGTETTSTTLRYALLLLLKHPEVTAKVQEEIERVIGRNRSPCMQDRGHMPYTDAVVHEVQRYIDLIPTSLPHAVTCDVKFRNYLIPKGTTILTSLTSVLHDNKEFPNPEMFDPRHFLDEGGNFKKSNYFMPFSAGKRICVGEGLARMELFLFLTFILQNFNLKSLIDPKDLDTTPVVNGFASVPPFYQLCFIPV
Chain of Cytochrome P450 2C9 (P11712 whole entry): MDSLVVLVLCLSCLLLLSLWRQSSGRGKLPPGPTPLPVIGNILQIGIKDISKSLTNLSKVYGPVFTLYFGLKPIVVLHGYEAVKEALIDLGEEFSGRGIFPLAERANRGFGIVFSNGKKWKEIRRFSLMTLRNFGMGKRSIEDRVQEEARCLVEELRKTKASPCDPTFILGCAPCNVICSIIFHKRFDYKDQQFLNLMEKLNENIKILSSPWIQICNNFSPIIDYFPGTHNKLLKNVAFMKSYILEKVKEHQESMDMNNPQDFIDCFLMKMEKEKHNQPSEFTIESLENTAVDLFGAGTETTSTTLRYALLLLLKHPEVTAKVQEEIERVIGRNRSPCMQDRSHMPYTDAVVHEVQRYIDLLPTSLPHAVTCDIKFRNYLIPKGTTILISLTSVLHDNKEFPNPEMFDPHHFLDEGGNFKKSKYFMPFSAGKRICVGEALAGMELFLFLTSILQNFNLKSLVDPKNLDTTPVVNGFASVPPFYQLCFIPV
Chain of Bile salt export pump (O95342 whole entry): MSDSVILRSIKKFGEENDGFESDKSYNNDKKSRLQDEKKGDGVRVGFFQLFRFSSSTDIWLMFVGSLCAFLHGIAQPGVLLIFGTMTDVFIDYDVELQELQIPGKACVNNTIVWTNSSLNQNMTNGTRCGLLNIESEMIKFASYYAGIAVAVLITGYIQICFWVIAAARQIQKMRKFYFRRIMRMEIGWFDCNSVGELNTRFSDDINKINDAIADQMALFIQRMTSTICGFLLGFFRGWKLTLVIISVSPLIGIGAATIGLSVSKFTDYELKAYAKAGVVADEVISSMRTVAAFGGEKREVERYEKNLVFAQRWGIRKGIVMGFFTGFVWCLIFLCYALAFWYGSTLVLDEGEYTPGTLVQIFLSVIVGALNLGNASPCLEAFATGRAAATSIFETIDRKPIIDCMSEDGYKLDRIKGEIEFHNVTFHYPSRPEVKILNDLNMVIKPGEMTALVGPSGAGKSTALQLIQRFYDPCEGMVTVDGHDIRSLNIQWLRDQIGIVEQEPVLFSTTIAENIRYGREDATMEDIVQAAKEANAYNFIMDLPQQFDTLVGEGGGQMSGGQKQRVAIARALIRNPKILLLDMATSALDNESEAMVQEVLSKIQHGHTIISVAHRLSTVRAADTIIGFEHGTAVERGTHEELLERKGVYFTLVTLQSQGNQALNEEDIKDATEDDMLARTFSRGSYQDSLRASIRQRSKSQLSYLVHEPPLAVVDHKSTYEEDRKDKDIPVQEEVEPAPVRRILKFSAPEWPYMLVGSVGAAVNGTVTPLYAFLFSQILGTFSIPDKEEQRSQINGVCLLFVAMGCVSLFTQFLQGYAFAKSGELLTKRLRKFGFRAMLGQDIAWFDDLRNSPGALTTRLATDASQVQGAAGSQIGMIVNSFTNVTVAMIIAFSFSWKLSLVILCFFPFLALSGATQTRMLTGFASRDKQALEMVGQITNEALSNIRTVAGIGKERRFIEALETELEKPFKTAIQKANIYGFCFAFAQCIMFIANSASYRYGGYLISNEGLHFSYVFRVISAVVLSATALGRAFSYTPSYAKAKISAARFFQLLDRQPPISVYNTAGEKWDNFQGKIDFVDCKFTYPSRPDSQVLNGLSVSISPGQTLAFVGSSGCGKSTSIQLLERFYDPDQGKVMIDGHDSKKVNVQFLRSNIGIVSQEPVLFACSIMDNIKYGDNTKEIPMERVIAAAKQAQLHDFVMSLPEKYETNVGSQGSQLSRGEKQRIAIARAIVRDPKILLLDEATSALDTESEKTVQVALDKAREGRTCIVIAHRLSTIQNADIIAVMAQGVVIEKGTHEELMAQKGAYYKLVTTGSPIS

- fraction unbound at 24 h, 2 µM [1]: 0.24
- pEC50 [2]: 7.92
- CLint scaled at 1 µM [4]: 1.5 mL/min/kg
- Vd [5]: 0.8 L/kg
- Vd [6]: 0.4 L/kg
- Vd [7]: 0.8 L/kg
- AUC(0-t) at 24 h [8]: 54 µM·h
- half-life [9]: 3.9 h
- bioavailability [10]: 43%
- Drug metabolism [11]: metabolite_detected
- pKi [12]: 7.22
- pEC50 [13]: 6.97
- pEC50 [14]: 7.15
- pEC50 [15]: 7.34
- Papp A→B at 10 µM [16]: 0.4 ×10⁻⁶ cm/s
- Papp B→A at 10 µM [17]: 17 ×10⁻⁶ cm/s
- fraction unbound at 24 h, 2 µM [18]: 0.14
- fraction unbound at 24 h, 2 µM [19]: 0.095
- pIC50 [21]: 4.89
- inhibition (INH) (Cytochrome P450 1A2): Not_active
- inhibition (INH) (Cytochrome P450 2C9): Not_active
- inhibition (INH) (Cytochrome P450 2C19): Not_active
SMILES: C[C@@H](OC(=O)Nc1c(-c2ccc(NC(=O)c3cnc(C(F)(F)F)nc3)cn2)nnn1C)c1cc(F)cnc1F
- fraction unbound at 24 h [3]: 0.19
- Activity [20]: Non-toxic
- pIC50 (Bile salt export pump): 4.66
- Activity [22]: Non-toxic
- Activity [23]: Non-toxic
- Activity [24]: Non-toxic
